Data reported in patent US20260053171A1, “METHANOGEN INHIBITORS” (AGRIZERONZ LIMITED PARTNERSHIP, priority 2022, published 2026).

Assays:
[1] = tested on: methane production in rumen fluid; experiment: Rumen in vitro (RIV) assay, methane production from rumen fluid incubations; type: cell-based, cattle; conditions: Bos taurus, read-out: RIV % methane reduction +/− SD
Procedure, shortened: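 Rumen fluid from two fistulated cattle diluted 12 ml in 48 ml buffer with ryegrass substrate, incubated in sealed bottles at 39° C for 24-48 h in duplicate. Inhibitors added in DMF (stocks 1000-fold above highest assay level); total gas, methane and H2 measured automatically; 30 μM BES positive control, no-inhibitor negative control.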

[2] = tested on: methane emissions from sheep; experiment: Example 2: in vivo study on sheep methane emissions (respiration chambers, dosing in feed twice daily); conditions: for CH4 Inhibition [%] Average Days 1-3: Average Days 1-3, dose mg/day: Compound 60 412, 69 311, 67 414, 64 344
Excerpt: (§1) The trial for testing the effects of Compound 60, Compound 69, Compound 67 and Compound 64 on methane emissions from sheep over a 96-hour period in methane measurement chambers was approved by the Grasslands Animal Ethics Committee. Three sheep were used for each Compound 60 and Compound 69 treatment group and six sheep were used for each Compound 67 and Compound 64 treatment group. The animals received a general-purpose diet (GP) at 1.5× maintenance energy requirements throughout the trials consisting of 500 g hay, 100 g soybean meal, 290 g barley, 100 g molasses and 10 g mineral mix. During the time in the respiration chambers the animals had free access to water, with the feed offered twice a day at approximately 9:00 and 16:00 h in equal amounts. Feed refusals were weighed.
(§2) The animals were adapted to GP diet for 14 days prior to entering the methane measurement chambers. Rumen contents were sampled by stomach tubing before methane emissions were measured in the respiration chambers and the day after being released from the chambers to allow for the future examination of any effects on volatile fatty acids (VFAs). Rumen samples from stomach tubing were immediately subsampled for short chain fatty acid (SCFA) analysis (1.8 ml). The samples were centrifuged (20,000 g, 10 min, 4° C.). An aliquot of 0.9 ml of the supernatant was collected into 0.1 ml of internal standard (19.8 mM ethylbutyrate in 20% v/v phosphoric acid) for SCFA analysis and stored at −20° C. SCFA samples were thawed and centrifuged (20,000 g, 10 min, 4° C.) and 800 μl of the supernatant was collected into a crimp cap glass vial. SCFA were analysed by a HP 6890 gas chromatograph (Attwood et al., 1998).
After the 14-day acclimatisation period, methane emissions were measured in open circuit respiration chambers as described in Chapter 1 of the technical manual on respiration chamber design (http://www.globalresearchalliance.org/wp-content/uploads/2012/03/GRA-MAN-Facility-BestPract-2012-ch13.pdf). Dry matter intake (DMI, kg/d) was recorded during methane measurements from the weight difference of feed offered and refused. The first day in the chambers (24-hour period; Period 1) served as a control for each animal. For the next three days the sheep received Compound 60, Compound 69, Compound 67 and Compound 64 at 412, 311, 414 and 344 mg per day, respectively (72-hour period; Period 2).
Methane gas outputs for the 96-hour period (first 24 hours for background measurements (Period 1), followed by three days of dosing (Period 2)) in open circuit respiration chambers were determined and are summarised in Table 2.

[3] = tested on: methane emissions from sheep; experiment: Example 1: in vivo study on sheep methane emissions (respiration chambers, once-daily drench); conditions: once-daily drenching, 121.3 mg/day, average of 3 sheep
Description: as §1, with “19” for “60, Compound 69, Compound 67 and Compound 64”, “96 hour” for “96-hour”, “Committee, and the use of the compounds in animals by the New Zealand Food Safety Authority, as required under ACVM legislation.” for “Committee.”, “19” for “60 and Compound 69 treatment group and six sheep were used for each Compound 67 and Compound 64”, “soy bean” for “soybean”
as §2, with “An aliquot of 0.9 ml of the supernatant was collected into 0.1 ml of internal standard (19.8 mM ethylbutyrate in 20% v/v phosphoric acid) for SCFA analysis and stored at −20° C. SCFA samples were thawed and centrifuged (20,000 g, 10 min, 4° C.) and 800 μl of the supernatant was collected into a crimp cap glass vial.” left out
After the 14-day acclimatisation period, methane emissions were measured in open circuit respiration chambers as described in Chapter 1 of the technical manual on respiration chamber design (http://www.globalresearchalliance.org/wp-content/uploads/2012/03/GRA-MAN-Facility-BestPract-2012-ch13.pdf). Dry matter intake (DMI, kg/d) was recorded during methane measurements from the weight difference of feed offered and refused. […]
Methane gas outputs for the 96-hour period (first 24 hours for background measurements (Period 1), followed by three days of dosing) in open circuit respiration chambers were determined and are summarised in Table 1.

female Swiss mice = experiment: Toxicity testing in mice according to OECD 423; type: in vivo; conditions: 300 mg/kg, single dose by oral gavage in corn oil, observed 14 days
Description: The potential toxicology of Compound 19 was tested according to OECD 423. Mice testing used two groups with three mice (female Swiss mice, non-pregnant), all at approximately 8-9 weeks of age. On the day of testing, food was withdrawn 1-2 hours prior to dosing. Following fasting, the animals were weighed and the test substances administered. Access to food was resumed 1-2 hours after administration of the compounds. The compounds were administered in a single dose by oral gavage in corn oil (maximum of 0.3 ml per dose) at the selected dose and the time recorded. The mice were observed individually after dosing at least once during the first 30 minutes, periodically over the first 24 hours, with special attention given to the first 4 hours, and then daily thereafter for a total of 14 days. The mice were weighed every seven days (0, 7 and 14 days). All observations were systematically recorded for each individual animal. These observations included (if present): tremors, convulsions, salivation, diarrhoea, lethargy, sleep, coma, and changes in fur, skin, eyes, mucus membranes, respiration, motor activity and behaviour.

[4] = tested on: methane emissions from cattle; experiment: Example 3: in vivo cattle trial on methane emissions (respiration chambers, dosing in feed twice daily)
Excerpt: as §1, with “various doses of” for “Compound 60, Compound 69, Compound 67 and”, “cattle” for “sheep”, “four 48-hour periods” for “a 96-hour period”, “Four cattle (Friesian dairy heifers, approximately 400 kg)” for “Three sheep”, “of two” for “Compound 60 and Compound 69 treatment group and six sheep were used for each Compound 67 and”, “groups.” for “group.”
as §2
After the 14-day acclimatisation period, methane emissions were measured in open circuit respiration chambers as described in Chapter 1 of the technical manual on respiration chamber design (http://www.globalresearchalliance.org/wp-content/uploads/2012/03/GRA-MAN-Facility-BestPract-012-ch13.pdf). Dry matter intake (DMI, kg/d) was recorded during methane measurements from the weight difference of feed offered and refused. Chamber measurements were made once a week for five weeks. The first period in the chambers (48-hour period; Period 1) served as a control for each animal. […]
Methane gas outputs for the four 48-hour treatment periods (Periods 2-5) in open circuit respiration chambers were determined and are summarised in Table 1. There were little or no feed refusals.

[5] = Day 1, dose mg/day: Compound 60 412, 69 311, 67 414, 64 344
[6] = Day 2, dose mg/day: Compound 60 412, 69 311, 67 414, 64 344
[7] = Day 3, dose mg/day: Compound 60 412, 69 311, 67 414, 64 344

SMILES	inhibition at 2 µM [1]	inhibition at 10 µM [1]	CH4 Inhibition [%] Average Days 1-3 [2]	CH4 Inhibition [%] [2, 5]	CH4 Inhibition [%] [2, 6]	CH4 Inhibition [%] [2, 7]	inhibition at 50 µM [1]	CH4 Inhibition [%] ([3]; Day 1)	CH4 Inhibition [%] ([3]; Day 2)	CH4 Inhibition [%] ([3]; Day 3)	adverse effects (OECD 423) (female Swiss mice)	CH4 Inhibition [%] ([4]; High dose group, Period 2, 150 mg/day)	CH4 Inhibition [%] ([4]; High dose group, Period 3, 450 mg/day)	CH4 Inhibition [%] ([4]; High dose group, Period 4, 450 mg/day)	CH4 Inhibition [%] ([4]; High dose group, Period 5, 450 mg/day)	CH4 Inhibition [%] ([4]; Low dose group, Period 2, 50 mg/day)	CH4 Inhibition [%] ([4]; Low dose group, Period 3, 300 mg/day)	CH4 Inhibition [%] ([4]; Low dose group, Period 4, 300 mg/day)	CH4 Inhibition [%] ([4]; Low dose group, Period 5, 300 mg/day)
CC(C)S(=O)(=O)NC(=O)CCC(=O)N1N=C(c2ccc(-c3ccccc3)cc2)CC1c1ccc2nccnc2c1 (stereo not shown) [Compound 69, 4-(3-([1,1′-Biphenyl]-4-yl)-5-(quinoxalin-6-yl)-4,5-dihydro-1H-pyrazol-1-yl)-N-(isopropylsulfonyl)-4-oxobutanamide]	37.6 ± 5.6%	92.8 ± 1.8%	23.5%	11.9%	26.3%	32.4%													
O=C(O)CCC(=O)N1N=C(c2ccc(-c3ccc(Cl)cc3)cc2)CC1c1ccc2nccnc2c1 (stereo not shown) [Compound 19, 4-(3-(4′-Chloro-[1,1′-biphenyl]-4-yl)-5-(quinoxalin-6-yl)-4,5-dihydro-1H-pyrazol-1-yl)-4-oxobutanoic acid]	5.3 ± 0.6%	83.7 ± 0.6%					91.1 ± 0.3%	−6.5%	8.9%	11.4%	No adverse effects								
O=C(O)c1cccc(N2N=C(c3ccc(Cl)cc3)CC2c2ccc3nccnc3c2)c1 (stereo not shown) [Compound 60, 3-(3-(4-Chlorophenyl)-5-(quinoxalin-6-yl)-4,5-dihydro-1H-pyrazol-1-yl)benzoic acid]	16.1 ± 0.5%	90.9 ± 1.2%	26.2%	26.3%	20.9%	31.2%	97.7 ± 0.6%												
CC(C)Oc1ccc(-c2ccc(C3=NN(C(=O)CCC(=O)O)C(c4ccc5nccnc5c4)C3)cc2)cc1 (stereo not shown) [Compound 64, 4-(3-(4′-Isopropoxy-[1,1′-biphenyl]-4-yl)-5-(quinoxalin-6-yl)-4,5-dihydro-1H-pyrazol-1-yl)-4-oxobutanoic acid]	81%	97.5%	85.8%	81.9%	85.6%	89.8%						1.9 ± 5.2%	15.6 ± 11.7%	0.5 ± 5.8%	5.6 ± 3.0%	−4.7 ± 2.9%	20.2 ± 9.8%	2.5 ± 4.6%	−1.8 ± 4.0%
O=C(O)CCC(=O)N1N=C(c2ccc(-c3ccc(OC(F)(F)F)c(F)c3)cc2)CC1c1ccc2nccnc2c1 (stereo not shown) [Compound 67, 4-(3-(3′-Fluoro-4′-(trifluoromethoxy)-[1,1′-biphenyl]-4-yl)-5-(quinoxalin-6-yl)-4,5-dihydro-1H-pyrazol-1-yl)-4-oxobutanoic acid]	51.8 ± 8.4%	92.4 ± 1.5%	36.5%	24.2%	36.7%	48.6%													
